Measured values from PubChem BioAssay AID330 (DTP/NCI, 2004).
Several values for one entry are separate records, joined by “and”; a condition that tells them apart may be missing. Identical values can stand only once. Inconclusive results and toxic doses are left out. Rule for the calls: active = survival T/C of 150% or more; inactive = T/C below 125% in these data. Bridge positions count the residues as written; N and C are the ends. Peptide text beside a SMILES is read from it. I, II: the chains in the order shown.

Tested on: P388 leukemia ip, CD2F1 mice, survival T/C
Experiment: NCI In Vivo Anticancer Drug Screen. Data for tumor model P388 Leukemia (intraperitoneal) in CD2F1 (CDF1) mice
Conditions: endpoint: median survival time, higher = longer survival
Outline: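 Mice carrying the transplanted tumor received test compound or vehicle. Survival was recorded in each group, and the value is the treated-group measurement divided by that of the vehicle-treated control group.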

[1] = dose: 50.0 mg/kg/injection, schedule: Q01DX009 (ip), vehicle: saline with Tween-80
[2] = dose: 100.0 mg/kg/injection, schedule: Q01DX009 (ip), vehicle: saline with Tween-80
[3] = dose: 50.0 mg/kg/injection, schedule: Q01DX005 (ip), vehicle: saline with Tween-80
[4] = dose: 100.0 mg/kg/injection, schedule: Q01DX005 (ip), vehicle: saline with Tween-80
[5] = dose: 200.0 mg/kg/injection, schedule: Q01DX005 (ip), vehicle: saline with Tween-80
[6] = dose: 60.0 mg/kg/injection, schedule: Q01DX005 (ip), vehicle: Klucel (hydroxypropylcellulose) (HPC)
[7] = dose: 120.0 mg/kg/injection, schedule: Q01DX005 (ip), vehicle: Klucel (hydroxypropylcellulose) (HPC)
[8] = dose: 240.0 mg/kg/injection, schedule: Q01DX005 (ip), vehicle: Klucel (hydroxypropylcellulose) (HPC)
[9] = dose: 50.0 mg/kg/injection, schedule: Q01DX005 (ip), vehicle: Klucel (hydroxypropylcellulose) (HPC)
[10] = dose: 100.0 mg/kg/injection, schedule: Q01DX005 (ip), vehicle: Klucel (hydroxypropylcellulose) (HPC)
[11] = dose: 200.0 mg/kg/injection, schedule: Q01DX005 (ip), vehicle: Klucel (hydroxypropylcellulose) (HPC)
[12] = dose: 50.0 mg/kg/injection, schedule: Q01DX009 (ip), vehicle: saline
[13] = dose: 100.0 mg/kg/injection, schedule: Q01DX009 (ip), vehicle: saline
[14] = dose: 200.0 mg/kg/injection, schedule: Q01DX009 (ip), vehicle: saline

Measured: T/C

CC(=O)OCc1ncccc1OC(C)=O
inactive: dose: 25.0 mg/kg/injection, schedule: Q01DX009 (ip), vehicle: saline with Tween-80 104 % of control | [1] 111 % of control | [2] 104 % of control | dose: 200.0 mg/kg/injection, schedule: Q01DX009 (ip), vehicle: saline with Tween-80 109 % of control

O=c1c2ccccc2cnn1CO
inactive: dose: 100.0 mg/kg/injection, schedule: Q04DX003 (ip), vehicle: saline 114 % of control | dose: 200.0 mg/kg/injection, schedule: Q04DX003 (ip), vehicle: saline 119 % of control

O=C1C=CC(=O)C2(CO)OC12 (stereo not drawn)
inactive: dose: 1.88 mg/kg/injection, schedule: Q04DX002 (ip), vehicle: saline with Tween-80 95 % of control | dose: 3.75 mg/kg/injection, schedule: Q04DX002 (ip), vehicle: saline with Tween-80 102 % of control

Nc1cccc(-c2nn[nH]n2)c1
inactive: [3] 98 % of control | [4] 102 % of control | [5] 88 % of control

O=C(O)c1ccccc1Nc1c(C(=O)O)cnc2cc3c(cc12)OCO3
inactive: [6] 101 % of control | [7] 99 % of control | [8] 88 % of control

CC(C)(C)C(=O)CC(=O)C(F)(F)C(F)(F)C(F)(F)F.CC(C)(C)C(=O)CC(=O)C(F)(F)C(F)(F)C(F)(F)F.CC(C)(C)C(=O)CC(=O)C(F)(F)C(F)(F)C(F)(F)F.[Eu]
inactive: dose: 60.0 mg/kg/injection, schedule: Q01DX005 (ip), vehicle: Klucel + Tween-80 99 % of control | dose: 120.0 mg/kg/injection, schedule: Q01DX005 (ip), vehicle: Klucel + Tween-80 98 % of control | dose: 240.0 mg/kg/injection, schedule: Q01DX005 (ip), vehicle: Klucel + Tween-80 98 % of control

OC1CN(Cc2ccccc2)C[C@@H]1O (stereo partly drawn)
inactive: dose: 60.0 mg/kg/injection, schedule: Q01DX005 (ip), vehicle: saline 100 % of control | dose: 120.0 mg/kg/injection, schedule: Q01DX005 (ip), vehicle: saline 96 % of control

C=C(C)C1(O)c2c(Cl)cccc2C(c2ccccc2)c2cccc(Cl)c21 (stereo not drawn)
inactive: dose: 100.0 mg/kg/injection, schedule: Q01DX001 (ip), vehicle: saline with Tween-80 110 % of control | dose: 200.0 mg/kg/injection, schedule: Q01DX001 (ip), vehicle: saline with Tween-80 107 % of control | dose: 400.0 mg/kg/injection, schedule: Q01DX001 (ip), vehicle: saline with Tween-80 100 % of control

O=c1cc(CC2(O)CCCCC2)c2ccccc2[nH]1
inactive: [6] 95 % of control | [7] 102 % of control | [8] 95 % of control

O=C(Nc1ccc(Cl)c(Cl)c1Cl)/C(Cl)=C1/Sc2ccccc2NC1=O
inactive: [3] 108 % of control | [4] 101 % of control | [5] 101 % of control

CNC(=O)c1nn(C)c(=O)[nH]c1=O
inactive: dose: 50.0 mg/kg/injection, schedule: Q01DX005 (ip), vehicle: saline 97 % of control | dose: 100.0 mg/kg/injection, schedule: Q01DX005 (ip), vehicle: saline 103 % of control | dose: 200.0 mg/kg/injection, schedule: Q01DX005 (ip), vehicle: saline 96 % of control

COc1ccc2c(c1OC)C(=O)O/C2=C/c1c(CCN(C)C)cc2c(c1O)OCO2
inactive: dose: 53.0 micrograms/kg/injection, schedule: Q01DX005 (ip), vehicle: Klucel (hydroxypropylcellulose) (HPC) 104 % of control | dose: 105.0 micrograms/kg/injection, schedule: Q01DX005 (ip), vehicle: Klucel (hydroxypropylcellulose) (HPC) 91 % of control | dose: 210.0 micrograms/kg/injection, schedule: Q01DX005 (ip), vehicle: Klucel (hydroxypropylcellulose) (HPC) 96 % of control | dose: 420.0 micrograms/kg/injection, schedule: Q01DX005 (ip), vehicle: Klucel (hydroxypropylcellulose) (HPC) 102 % of control

COc1cc(O)c(C(C)c2ccccc2)cc1N=O (stereo not drawn)
inactive: [3] 92 % of control | [4] 87 % of control | [5] 92 % of control

COC(=O)[C@]1(C)CCC[C@@]2(C)[C@@H]3C[C@@H]4[C@H]5C[C@@]3(CC[C@@H]21)C[C@@]45C
inactive: dose: 25.0 mg/kg/injection, schedule: Q01DX005 (ip), vehicle: Klucel (hydroxypropylcellulose) (HPC) 100 % of control | [9] 97 % of control | [10] 97 % of control | [11] 95 % of control

O=C1NC2C(CC(O)C(O)C2O)c2cc3c(c(O)c21)OCO3 (stereo not drawn)
inactive: dose: 0.19 mg/kg/injection, schedule: Q01DX009 (ip), vehicle: saline + alcohol 103 % of control | dose: 0.38 mg/kg/injection, schedule: Q01DX009 (ip), vehicle: saline + alcohol 111 % of control | dose: 0.75 mg/kg/injection, schedule: Q01DX009 (ip), vehicle: saline + alcohol 116 % of control | dose: 1.44 mg/kg/injection, schedule: Q01DX009 (ip), vehicle: saline + alcohol 107 % of control | dose: 1.5 mg/kg/injection, schedule: Q01DX009 (ip), vehicle: saline + alcohol 117 % of control | dose: 2.88 mg/kg/injection, schedule: Q01DX009 (ip), vehicle: saline + alcohol 115 % of control | dose: 5.75 mg/kg/injection, schedule: Q01DX009 (ip), vehicle: saline + alcohol 115 % of control | dose: 11.5 mg/kg/injection, schedule: Q01DX009 (ip), vehicle: saline + alcohol 115 % of control

CCCCCCCCCCCCCCCCCC(=O)[Se][Se]C(=O)CCCCCCCCCCCCCCCCC
inactive: dose: 50.0 mg/kg/injection, schedule: Q01DX009 (ip), vehicle: saline + Tween-80 + alcohol 99 % of control | dose: 100.0 mg/kg/injection, schedule: Q01DX009 (ip), vehicle: saline + Tween-80 + alcohol 104 % of control | dose: 200.0 mg/kg/injection, schedule: Q01DX009 (ip), vehicle: saline + Tween-80 + alcohol 104 % of control

c1ccc(C2SCC3COCN32)cc1 (stereo not drawn)
inactive: dose: 100.0 mg/kg/injection, schedule: Q04DX003 (ip), vehicle: saline with Tween-80 97 % of control | dose: 200.0 mg/kg/injection, schedule: Q04DX003 (ip), vehicle: saline with Tween-80 101 % of control | dose: 400.0 mg/kg/injection, schedule: Q04DX003 (ip), vehicle: saline with Tween-80 100 % of control

C1CC[N-]CC1.C1CC[N-]CC1.[Cl][Pt+2]([Cl])([Cl])[Cl]
inactive: dose: 264.0 mg/kg/injection, schedule: Q01DX009 (ip), vehicle: saline with Tween-80 86 % of control

CCOC(=O)Cc1cc2cc(OCC)ncc2cc1C
inactive: dose: 6.25 mg/kg/injection, schedule: Q01DX009 (ip), vehicle: distilled water + Tween-80 91 % of control | dose: 12.5 mg/kg/injection, schedule: Q01DX009 (ip), vehicle: distilled water + Tween-80 89 % of control | dose: 25.0 mg/kg/injection, schedule: Q01DX009 (ip), vehicle: distilled water + Tween-80 103 % of control | dose: 50.0 mg/kg/injection, schedule: Q01DX009 (ip), vehicle: distilled water + Tween-80 99 % of control | dose: 100.0 mg/kg/injection, schedule: Q01DX009 (ip), vehicle: distilled water + Tween-80 94 % of control | dose: 200.0 mg/kg/injection, schedule: Q01DX009 (ip), vehicle: distilled water + Tween-80 109 % of control | dose: 400.0 mg/kg/injection, schedule: Q01DX009 (ip), vehicle: distilled water + Tween-80 102 % of control

O=C1CSC2(CCN(CCCN3c4ccccc4Sc4ccc(Cl)cc43)CC2)N1
inactive: [1] 98 % of control | [2] 116 % of control

CCCCCCCCCCCCCCCC[N+]1(CC)CCCCCC1
inactive: dose: 0.04 mg/kg/injection, schedule: Q01DX009 (ip), vehicle: saline 110 % of control | dose: 0.09 mg/kg/injection, schedule: Q01DX009 (ip), vehicle: saline 103 % of control and 88 % of control | dose: 0.19 mg/kg/injection, schedule: Q01DX009 (ip), vehicle: saline 89 % of control

CC1(C)CC(=O)CC(C(Cl)(Cl)Cl)O1 (stereo not drawn)
inactive: [3] 99 % of control | [4] 100 % of control | [5] 98 % of control

Cn1nnc(-c2nnnn2N)n1
inactive: [12] 95 % of control | [13] 94 % of control | [14] 94 % of control

CC(C)C(NC(=O)C(N)CSSCC(N)C(=O)NC(C(=O)O)C(C)C)C(=O)O (stereo not drawn) (I: H-Cys-Val-OH / II: H-Cys-Val-OH; disulfide I:1-II:1; configuration not given here)
inactive: [9] 103 % of control | [10] 103 % of control | [11] 101 % of control

Cc1c(C)n(-c2ccccc2)c2nc(C)n(-c3ccccc3Cl)c(=N)c12
inactive: [9] 97 % of control | [10] 90 % of control

C1CCC2CC3NC3CC2C1 (stereo not drawn)
inactive: [12] 101 % of control | [13] 105 % of control | [14] 101 % of control
